Test results published in patent publication US20070197632A1, “Aminocyclohexyl ether compounds and uses thereof” (Cardiome Pharma Corp, priority 2003, published 2007).
Where a name gives a salt, the structure may show the parent alone. Read-outs that look alike come from different tables or passages of the source.

Legend:
conscious rats [1] = details: rat, in vivo, iv
[2] = test system: sustained AF maintained during continuous vagal nerve stimulation; test: Canine vagal-AF model; format: in vivo, dog; details: anesthetized dogs, IV
Description: St.-Georges et al., 1997). Dogs are ventilated mechanically with room air supplemented with oxygen via an endotracheal tube at 20 to 25 breaths/minute with a tidal volume obtained from a nomogram. […] Catheters are inserted into the femoral artery for blood pressure recording and blood gas measurement, and into both femoral veins for drug administration and venous sampling. […] Body temperature is maintained at 37-40° C. with a heating blanket. The heart is exposed via a medial thoracotomy and a pericardial cradle is created. […] Drug effects to terminate sustained AF maintained during continuous vagal nerve stimulation are assessed. […] The vagal stimulation voltage is adjusted under control conditions, and then readjusted after each treatment to maintain the same bradycardic effect. […] Diastolic threshold and ERP are determined in duplicate and averaged to give a single value. […] The interval between the stimulus artefact and the peak of the local electrogram is measured as an index of conduction velocity. […] The stimulus voltage-heart rate relationship for vagal nerve stimulation is determined under control conditions in most experiments. […] After the termination of AF, the diastolic threshold and ERP of the atrium and ventricle are determined. […] Group data are expressed as the mean±SEM. […]

conscious rats [3] = test: Determination of CNS toxicity: convulsions in conscious rats under intravenous infusion; details: Table 5, comparative example compounds; for convulsion dose: minimum iv infusion rate at which partial or complete convulsions are observed; for cum conv dose: total amount of drug infused when convulsions are first observed

`COc1ccc(CCO[C@H]2CCCCC2N2CC[C@H](O)C2)cc1OC.Cl` (stereo partly drawn) [Compound 5, (1R,2R)/(1S,2S)-2-[(3s)-Hydroxypyrrolidinyl]-1-(3,4-dimethoxyphenethoxy)-cyclohexane monohydrochloride] gave a convulsion dose (conscious rats [1]) of 64 µmol/kg/min.
In the case of `COc1ccc(CCO[C@H]2CCCC[C@@H]2N2CC[C@@H](O)C2)cc1OC.Cl` [Compound 2, (1S,2S)-2-[(3R)-Hydroxypyrrolidinyl]-1-(3,4-dimethoxyphenethoxy)-cyclohexane monohydrochloride], the convulsion dose (conscious rats [1]) is reported as 64 µmol/kg/min.
With `O=C(NCC1CCCCN1)c1cc(OCC(F)(F)F)ccc1OCC(F)(F)F` (stereo not shown) [Flecainide] the “Median dose required for termination of AF” value [2] was 2.5 µmol/kg and the “Mean dose required for termination of AF” value ([2]; mean±SEM) was 4 ± 2 µmol/kg.
`COc1ccc(CCO[C@H]2CCCCC2N2CC[C@@H](O)C2)cc1OC.Cl` (stereo partly drawn) [Compound 4, (1R,2R)/(1S,2S)-2-[(3R)-Hydroxypyrrolidinyl]-1-(3,4-dimethoxyphenethoxy)-cyclohexane monohydrochloride] showed a convulsion dose (conscious rats [1]) of 64 µmol/kg/min.
`COc1ccc(CCOC2CCCC[C@H]2N2CCC(=O)C2)cc1OC.Cl` (stereo partly drawn) [Comparative Example Compound 18, 1-{(1R,2R)/(1S,2S)-2-[2-(3,4-dimethoxyphenyl)-ethoxy]cyclohexyl}-pyrrolidin-3-one hydrochloride] gave a convulsion dose (conscious rats [3]) of 32 µmol/kg/min.
In the case of `COc1ccc(CCO[C@H]2CCCC[C@@H]2N2CC[C@H](O)C2)cc1OC.Cl` [Compound 7, (1S,2S)-2-[(3S)-Hydroxypyrrolidinyl]-1-(3,4-dimethoxyphenethoxy)-cyclohexane monohydrochloride], the convulsion dose (conscious rats [1]) is reported as 64 µmol/kg/min.
In the case of `COc1ccc(CCO[C@H]2CCCCC2N2CCC3(C2)OCCO3)cc1OC` (stereo partly shown) [Comparative Example Compound 10, monohydrochloride], the convulsion dose (conscious rats [3]) is reported as 16 µmol/kg/min and the cum conv dose (conscious rats [3]) is reported as 91.33 µmol/kg.
Compound `Brc1ccccc1CCO[C@H]1CCCCC1N1CCOCC1` (stereo partly drawn) [Comparative Example Compound 39, (1R,2R)/(1S,2S)-[2-(4-morpholinyl)-1-(2-bromophenethoxy)]-cyclohexane] has a convulsion dose (conscious rats [3]) of 16 µmol/kg/min.
Compound `COc1ccc(CCO[C@@H]2CCCC[C@H]2N2CC[C@H](O)C2)cc1OC.Cl` [Compound 6, (1R,2R)-2-[(3S)-Hydroxypyrrolidinyl]-1-(3,4-dimethoxyphenethoxy)-cyclohexane monohydrochloride] has a convulsion dose (conscious rats [1]) of 64 µmol/kg/min.
Compound `Cl.Clc1cccc(Cl)c1COC1CCCC[C@H]1N1CCOCC1` (stereo partly drawn) [Comparative Example Compound 44, (1R,2R)/(1S,2S)-2-(4-morpholinyl)-1-[(2,6-dichlorophenyl)methoxy]-cyclohexane monohydrochloride] has a convulsion dose (conscious rats [3]) of 16 µmol/kg/min and a cum conv dose (conscious rats [3]) of 97 µmol/kg.
For `COc1ccc(CCO[C@H]2CCCCC2N2CCC(O)C2)cc1OC` (stereo partly drawn) [Compound 3, (1R,2R)/(1S,2S)-2-[(3R)/(3S)-Hydroxypyrrolidinyl]-1-(3,4-dimethoxyphenethoxy)-cyclohexane monohydrochloride], the convulsion dose (conscious rats [1]) was 64 µmol/kg/min.
In the case of `COc1ccc(CCOC2CCCC[C@H]2N2CCOCC2)cc1OC` (stereo partly shown) [Comparative Example Compound 9, hydrochloride], the convulsion dose (conscious rats [3]) is reported as 16 µmol/kg/min and the cum conv dose (conscious rats [3]) is reported as 113 µmol/kg.
